Source: patent US20240317735A1, “HYDROISOQUINOLINE OR HYDRONAPHTHYRIDINE COMPOUNDS FOR THE TREATMENT OF AUTOIMMUNE DISEASE” (Hoffmann-La Roche Inc., priority 2020, published 2024)

Biological target: T1, human TLR7 (Homo sapiens, UniProt Q9NYK1)
T1 construct: host or cells: HEK293 (HEK-Blue hTLR7)
T1 sequence (Q9NYK1 27-1049): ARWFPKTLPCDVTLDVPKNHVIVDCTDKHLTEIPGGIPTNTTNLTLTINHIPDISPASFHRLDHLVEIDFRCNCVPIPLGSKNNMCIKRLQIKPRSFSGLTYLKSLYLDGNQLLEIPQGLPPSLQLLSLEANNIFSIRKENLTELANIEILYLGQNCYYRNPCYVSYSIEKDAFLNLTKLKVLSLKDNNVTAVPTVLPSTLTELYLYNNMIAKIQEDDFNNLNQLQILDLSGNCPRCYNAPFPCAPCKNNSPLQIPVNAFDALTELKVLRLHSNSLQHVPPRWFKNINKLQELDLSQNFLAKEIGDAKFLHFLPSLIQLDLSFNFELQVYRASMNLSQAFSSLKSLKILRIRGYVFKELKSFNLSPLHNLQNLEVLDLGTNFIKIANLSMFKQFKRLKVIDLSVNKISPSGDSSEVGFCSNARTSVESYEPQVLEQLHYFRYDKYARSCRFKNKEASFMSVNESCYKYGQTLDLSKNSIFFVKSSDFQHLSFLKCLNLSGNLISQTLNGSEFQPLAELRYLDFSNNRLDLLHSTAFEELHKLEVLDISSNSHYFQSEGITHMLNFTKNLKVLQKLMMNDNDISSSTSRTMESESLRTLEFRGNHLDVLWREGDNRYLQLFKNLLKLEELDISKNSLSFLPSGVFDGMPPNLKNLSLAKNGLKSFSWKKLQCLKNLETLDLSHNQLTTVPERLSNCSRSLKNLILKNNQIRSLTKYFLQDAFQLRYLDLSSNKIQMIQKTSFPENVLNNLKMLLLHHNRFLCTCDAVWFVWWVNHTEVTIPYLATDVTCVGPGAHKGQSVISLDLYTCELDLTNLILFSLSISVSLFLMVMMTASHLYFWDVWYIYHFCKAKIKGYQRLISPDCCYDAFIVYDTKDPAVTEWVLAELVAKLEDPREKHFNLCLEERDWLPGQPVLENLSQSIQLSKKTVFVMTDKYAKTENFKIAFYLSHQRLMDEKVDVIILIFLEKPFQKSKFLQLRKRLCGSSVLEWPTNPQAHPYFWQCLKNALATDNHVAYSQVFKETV
Test: HEK293-Blue-hTLR-7 cells assay (SEAP reporter, R848 stimulation)
Type: cell-based
Details: HEK293-Blue-hTLR7 cells, R848, 20 hrs; read-out: HEK/hTLR7 IC50
Outline: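 Stable HEK293-Blue-hTLR7 cells (NF-κB/AP-1-driven SEAP reporter) were co-incubated with serially diluted compound (1% DMSO final) and R848 for 20 hrs at 37 °C. Supernatant SEAP was developed with QUANTI-Blue substrate for 2 hrs at 37 °C and absorbance read at 620–655 nm; antagonism seen as reduced reporter signal.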

IC50 | SMILES
19 nM | Cc1cc(N2Cc3cnc(OCCN4CCNCC4)cc3[C@@H](C)C2)c2cnn(C)c2n1 [Example 77, (4R)-2-(1,6-dimethylpyrazolo[3,4-b]pyridin-4-yl)-4-methyl-6-(2-piperazin-1-ylethoxy)-3,4-dihydro-1H-2,7-naphthyridine]
45 nM | CO[C@@H]1CN(c2cc3c(cn2)CN(c2cc(C)nc4c2cnn4C)C[C@@H]3C)C[C@H]1N [Example 78, (3R,4R)-4-methoxy-1-[(5R)-7-(1,6-dimethylpyrazolo[3,4-b]pyridin-4-yl)-5-methyl-6,8-dihydro-5H-2,7-naphthyridin-3-yl]pyrrolidin-3-amine]
19 nM | Cc1cc(N2Cc3cnc(N4CC5(CNCCO5)C4)cc3[C@@H](C)C2)c2cnn(C)c2n1 [Example 79, 2-[(5R)-7-(1,6-dimethylpyrazolo[3,4-b]pyridin-4-yl)-5-methyl-6,8-dihydro-5H-2,7-naphthyridin-3-yl]-5-oxa-2,8-diazaspiro[3.5]nonane]
12 nM | Cc1cc(N2Cc3cnc(N4CC[C@@H](N)[C@H](F)C4)cc3[C@@H](C)C2)c2cnn(C)c2n1 [Example 80, (3R,4R)-3-fluoro-1-[(5R)-7-(1,6-dimethylpyrazolo[3,4-b]pyridin-4-yl)-5-methyl-6,8-dihydro-5H-2,7-naphthyridin-3-yl]piperidin-4-amine]
41 nM | COC[C@H]1CN(c2cc3c(cn2)CN(c2cc(C)nc4c2cnn4C)C[C@@H]3C)CCN1 [Example 81, (4R)-2-(1,6-dimethylpyrazolo[3,4-b]pyridin-4-yl)-4-methyl-6-[(3R)-3-(methoxymethyl)piperazin-1-yl]-3,4-dihydro-1H-2,7-naphthyridine]

Continued, compound first:

SMILES | IC50
CO[C@H]1CN(c2cc3c(cn2)CN(c2cc(C)nc4c2cnn4C)C[C@@H]3C)CC[C@@H]1N [Example 73, (3S,4S)-3-methoxy-1-[(5R)-7-(1,6-dimethylpyrazolo[3,4-b]pyridin-4-yl)-5-methyl-6,8-dihydro-5H-2,7-naphthyridin-3-yl]piperidin-4-amine] | 4 nM
Cc1cc(N2Cc3cnc(N4CCNCC4)cc3[C@@H](C)C2)c2cnn(C)c2n1 [Example 74, (4R)-2-(1,6-dimethylpyrazolo[3,4-b]pyridin-4-yl)-4-methyl-6-piperazin-1-yl-3,4-dihydro-1H-2,7-naphthyridine] | 6 nM
Cc1cc(N2Cc3cnc(N4CCNC5(CC5)C4)cc3[C@@H](C)C2)c2cnn(C)c2n1 [Example 75, (4R)-6-(4,7-diazaspiro[2.5]octan-7-yl)-2-(1,6-dimethylpyrazolo[3,4-b]pyridin-4-yl)-4-methyl-3,4-dihydro-1H-2,7-naphthyridine] | 10 nM
Cc1cc(N2Cc3cnc(O[C@@H]4C[C@H]5CNCCN5C4)cc3[C@@H](C)C2)c2cnn(C)c2n1 [Example 76, (4R)-2-(1,6-dimethylpyrazolo[3,4-b]pyridin-4-yl)-4-methyl-6-[[(7R,8aS)-1,2,3,4,6,7,8,8a-octahydropyrrolo[1,2-a]pyrazin-7-yl]oxy]-3,4-dihydro-1H-2,7-naphthyridine] | 19 nM
